Assay results: patent US6673812B1, “Preventives/remedies for glaucoma” (Senju Pharmaceutical Co., Ltd., priority 1998, dated 2004)

Tested on: Japanese white rabbits
Assay: Effect on normal intraocular pressure of white rabbits
Assay type: in vivo, rabbit
Conditions: 20 μl eye drop, 0.1% or 0.03%
Excerpt: In this experiment, 0.1% eye drop and 0.03% eye drop containing Compound A (each prepared in Example 2 and Example 3), 0.03% eye drop containing Compound B (prepared in Example 4), 0.1% eye drop and 0.03% eye drop containing Compound C (each prepared in Example 5 and Example 6) and 0.03% eye drop containing Compound D (prepared in Example 7) were used.
Japanese white rabbits (body weight about 2 kg) purchased from Japan Laboratory Animals, INC. were used. These animals were bred in a breeding chamber set to temperature 23±3° C., humidity 55±10% and fed on limited amount of 100 g a day of a solid feed (Labo R Stock, Nihon-Nosan Kogyo K.K.). They were allowed free access to tap water. The rabbits were placed in a holding box for 5 hr a day for acclimation from 2 days prior to the test. […] After measurement of the initial value of the intraocular pressure, various eye drops (20 μl) were instilled into one eye, and a base, which was one of various eye drops except the test drug, was instilled into the other eye in the same manner and taken as the control eye.
The intraocular pressure was measured with time at 30, 60, 90, 120, 150 and 180 min after instillation and thereafter at one hour intervals until the intraocular pressure returned to the initial value, and the duration of the effect was examined.

C[C@@H](N)c1ccc(C(=O)Nc2ccnc3[nH]ccc23)cc1.Cl.Cl.O [Compound D, (R)-(+)-N-(1H-pyrrolo[2,3-b]pyridin-4-yl)-4-(1-aminoethyl)benzamide 2HCl 1H2O]
character (onset, duration) of intraocular pressure lowering effect: marked and long lasting intraocular pressure lowering effect
